# Measurements: US5606038A, “Amphiphilic polyene macrolide antibiotic compounds” (Competitive Technologies, Inc., priority 1995, dated 1997)
# Where two headings read alike, the source gives them in different places.
# Key:
# [1] = system: Candida albicans (isolate NIH A); test: MIC against infecting isolate of Example V; format: cell-based; conditions: 24 and 48 hours
# Candida albicans [2] = test: minimum inhibitory concentration, Candida albicans, broth microdilution; format: cell-based; conditions: 24 h, 37° C.
# Experimental: ^c minimum inhibitory concentration (see Example IV); three different
# strains of Candida albicans were tested; all tests were done in broth
# microdilution in yeast nitrogen baseglucose at 37° C. for 24 hours
# the initial inoculum was 1 × 10^4 blastospores per ml
# The minimum inhibitory concentration reported in Table I was obtained, and further confirmed as reported in Table II, by the methods described in the following Example IV.
# (§1) Microorganism inocula was harvested from one to five day old cultures grown on Sabourand's dextrose agar. After two washes with sterile saline, the inocula were counted utilizing a hemacytometer and diluted or concentrated as required to 1×10^4 blastospores per ml. Sterile molten agar (at 50° C.) was inoculated, allowed to cool, and 10 mm diameter discs impregnated (from […] stock solutions) with each of the test compounds was placed on the surface of the agar. Zones of inhibition were measured after incubating the plates at 30° C. for 24-48 hours.
# (§2) The compounds were then screened against three strains of three species of microorganisms: Candida albicans, Cryptococcus neoformans, and Aspergillus fumigatus using a conventional double dilution technique. All tests reported in Table II were done by broth microdilution in yeast nitrogen base-glucose using an inoculum of 1×10^4 blastospores per ml; the cultures were incubated at 37° C. for 24 hours, and the minimum concentration (in μg/ml) that prevents visible growth was recorded as the minimum inhibitory concentration.
# [3] = critical micelle concentration in PBS by molar absorptivity at 409 nm; format: physicochemical; conditions: PBS (pH 7.4), 37° C.
# Text: In its monomeric state, Amphotericin B has a characteristic absorption band at 409 nm; upon aggregation, however, its apparent molar absorptivity decreases in magnitude [see Biochemistry 30:5707 (1991)]. Thus, by measuring its molar absorptivity as a function of the reciprocal of the macrolide concentration, one can estimate the critical micelle concentration. This can be shown mathematically by allowing T, m and P to represent the total, monomeric, and micellar concentrations (i.e. the concentration of the drug that is present in micellar form) of the macrolide, respectively, and if ε represents the apparent molar absorptivity and εm and εp are the molar absorptivity for the monomeric and micellar components, respectively, then it can be shown that ε=εp +(εm -εp)m/T. At concentrations in excess of the critical micelle concentration, m is a constant and ε is inversely proportional to T.
# Using the method described previously, the critical micelle concentrations for Amphotericin B and the conjugates described in the preceding examples were determined and are reported in Table I describing the aggregation, antifungal and hemolytic properties of […] macrolide antibiotics (in μM amounts) according to the present invention.
# ^a critical micelle concentration was determined in PBS (pH 7.4) at […]
# Aspergillus fumigatus = test: minimum inhibitory concentration, Aspergillus fumigatus, broth microdilution; format: cell-based; conditions: 24 h, 37° C.
# Experimental: as §1, §2
# [4] = UV-vis spectroscopy of interaction with ergosterol-containing large unilamellar vesicles; conditions: Example II: 2.6 μM; 1 mM egg phosphatidyl choline and 0.5 mM ergosterol; 20 minutes, 23° C.
# Text: In order to confirm that the poly(ethylene glycol)conjugates of the present invention retain their ability to recognize ergosterol-rich bilayers, their interaction with sterol-containing large unilamellar vesicles (1000 A diameter, LUVs) by UV-vis spectroscopy using published techniques [see J. Am. Chem. Soc. 115:708 (1993)]. […] Thus, the poly(ethylene glycol) conjugates according to the present invention recognize ergosterol-rich bilayers in a way that is similar to Amphotericin B.
# [5] = system: Cryptococcus neoformans (isolate NIH C-1); test: survival of mice infected with Cryptococcus neoformans (Example VI); format: in vivo, Cryptococcus neoformans in ICR mice; conditions: 30 mg/kg i.p. once per day
# Text: (§3) Ten immunocompetent ICR mice weighing 30 g each in two groups were inoculated intravenously with 255 colony forming units of Cryptococcus neoformans (isolate NIH C-1) per mouse.
# [6] = system: Candida albicans (isolate NIH A); test: survival of mice infected with Candida albicans (Example V); format: in vivo, Candida albicans in ICR mice; conditions: i.p. once per day for ten days, Example II 30 mg/kg, Amphotericin B 1 mg/kg
# Text: Ten immunocompetent ICR mice weighing 30 g each in three groups were inoculated intravenously with 3.2×10^6 colony forming units of Candida albicans (isolate NIH A) per mouse.
# Cryptococcus neoformans = test: minimum inhibitory concentration, Cryptococcus neoformans, broth microdilution; format: cell-based; conditions: 24 h
# Experimental: as §1, §2
# C. neoformans = test: second in vivo assay, survival of mice infected with C. neoformans; set-up: species or system C. neoformans in ICR mice; conditions: 5 mg/kg subcutaneous BID
# Experimental: as §3
# A second in vivo assay was conducted as in Example VI with the exception that infection was with 488 colony forming units of C. neoformans, and that the test compound was administered 5 mg/kg, subcutaneous, BID.
# solubility in water = format: physicochemical
# Candida albicans [7] = test: K+ release from fungal cells; format: cell-based; conditions: 3×10^7 fungal cells/ml, read-out: concentration for releasing 50% of the K+ from fungal cells
smiles,measurement,setting,value
COCCOCCOCCOCCOCCOCCNC(=O)[C@H]1[C@@H]2C[C@@H](O[C@@H]3O[C@H](C)[C@@H](O)[C@H](N)[C@@H]3O)/C=C/C=C/C=C/C=C/C=C/C=C/C=C/[C@H](C)[C@@H](O)[C@@H](C)[C@H](C)OC(=O)C[C@H](O)C[C@H](O)CC[C@@H](O)[C@H](O)C[C@H](O)C[C@](O)(C[C@@H]1O)O2 [Example II],MIC,[1]; in DMSO and water,3.03 µg/mL
same,MIC,[1]; in water only,≤ 6.06 µg/mL
same,MIC,"Candida albicans [2]; C. albicans (1), read-out: minimum inhibitory concentration",6.4 µg/mL
same,MIC,"Candida albicans [2]; C. albicans (2), read-out: minimum inhibitory concentration",3.2 µg/mL
same,MIC,"Candida albicans [2]; C. albicans (3), read-out: minimum inhibitory concentration",3.2 µg/mL
same,MIC,"Candida albicans [2]; three strains of Candida albicans, yeast nitrogen base-glucose, 1 × 10^4 blastospores per ml, read-out: MIC (minimum inhibitory concentration)",2.7 µM
same,cmc (critical micelle concentration),[3],25 µM
same,MIC,Aspergillus fumigatus; A. fumigatus (1),6.4 µg/mL
same,MIC,Aspergillus fumigatus; A. fumigatus (2),3.2 µg/mL
same,MIC,Aspergillus fumigatus; A. fumigatus (3),3.2 µg/mL
same,absorption spectrum change with ergosterol-containing vesicles,[4],"strong diminution in the monomer band at 409 nm and new bands at 415, 390 and 375 nm"
same,percent survival,[5]; day 9 post-infection,100%
same,percent survival,[5]; day 10 post-infection,100%
same,percent survival,[5]; day 13 post-infection,100%
same,percent survival,[5]; day 14 post-infection,90%
same,percent survival,[5]; day 15 post-infection,90%
same,percent survival,[5]; day 16 post-infection,90%
same,percent survival,[5]; day 17 post-infection,90%
same,percent survival,[5]; day 18 post-infection,90%
same,percent survival,[5]; day 19 post-infection,90%
same,percent survival,[5]; day 20 post-infection,90%
same,percent survival,[5]; day 21 post-infection,90%
same,percent survival,[5]; day 22 post-infection,70%
same,percent survival,[5]; day 25 post-infection,70%
same,percent survival,[5]; day 26 post-infection,60%
same,percent survival,[5]; day 27 post-infection,60%
same,percent survival,[5]; day 28 post-infection,50%
same,percent survival,[5]; day 29 post-infection,50%
same,percent survival,[5]; day 30 post-infection,40%
same,percent survival,[6]; day 2 post-infection,100%
same,percent survival,[6]; day 3 post-infection,100%
same,percent survival,[6]; day 4 post-infection,100%
same,percent survival,[6]; day 5 post-infection,100%
same,percent survival,[6]; day 6 post-infection,100%
same,percent survival,[6]; day 7 post-infection,90%
same,percent survival,[6]; day 30 post-infection,90%
same,MIC,"Cryptococcus neoformans; C. neoformans (1), 37° C., read-out: minimum inhibitory concentration",3.2 µg/mL
same,MIC,"Cryptococcus neoformans; C. neoformans (2), 37° C., read-out: minimum inhibitory concentration",3.2 µg/mL
same,MIC,"Cryptococcus neoformans; read-out: minimum inhibitory concentration, C. neofornams (3), 37° C.",3.2 µg/mL
same,percent survival,C. neoformans; day 11 post-infection,100%
same,percent survival,C. neoformans; day 12 post-infection,80%
same,percent survival,C. neoformans; day 13 post-infection,60%
same,percent survival,C. neoformans; day 14 post-infection,60%
same,percent survival,C. neoformans; day 15 post-infection,60%
same,percent survival,C. neoformans; day 16 post-infection,60%
same,percent survival,C. neoformans; day 17 post-infection,60%
same,percent survival,C. neoformans; day 19 post-infection,60%
same,percent survival,C. neoformans; day 20 post-infection,60%
same,percent survival,C. neoformans; day 21 post-infection,60%
same,percent survival,C. neoformans; day 22 post-infection,60%
same,percent survival,C. neoformans; day 23 post-infection,40%
same,percent survival,C. neoformans; day 24 post-infection,20%
same,percent survival,C. neoformans; day 27 post-infection,20%
same,percent survival,C. neoformans; day 28 post-infection,10%
same,percent survival,C. neoformans; day 29 post-infection,10%
same,percent survival,C. neoformans; day 30 post-infection,0%
same,solubility,solubility in water,≥ 10000 µg/mL
same,EC50,Candida albicans [7],1000 nM
